Test results: patent US9708314B2, “Heterocyclic amide compound” (NISSAN CHEMICAL INDUSTRIES, LTD., priority 2013, dated 2017)

Columns and labels:
Type in all cases: in vivo
[1] = system: Echinochloa oryzacola Vasing.; assay: Test Example 1: herbicidal activity, application before weed generation in submerged conditions; settings: Seventeenth Table
Description: (§1) [Test Example 1] Herbicidal Activity Test by Application Before Weed Generation in Submerged Conditions After alluvial soil was placed into 1/10000 are of Wagner pot, water was poured and mixed to form a submerged condition having a water depth of 4 cm. Seeds of Echinochloa oryzacola Vasing., Scirpus juncoides, and Monochoria vaginalis were sowed in a mixed manner in the above pot and thereafter 2.5 leaf stage Oryza sativa seedling was transplanted. On the day of sowing seeds, the emulsion agent containing the compound of the present invention prepared in accordance with Formulation Example 2 was diluted with water so as to be a predetermined herbicide amount and the diluted compound was applied to the surface of the water. The pot was placed in a greenhouse of 25° C. to 30° C. to grow plant. Three weeks after the herbicide application, effects on each plant were investigated in accordance with the following criteria. Criteria 5 Herbicidal ratio of 90% or more (almost completely withered) 4 Herbicidal ratio of 70% or more and less than 90% 3 Herbicidal ratio of 40% or more and less than 70% 2 Herbicidal ratio of 20% or more and less than 40% 1 Herbicidal ratio of 5% or more and less than 20% 0 Herbicidal ratio of 5% or less (almost no effect) A: Echinochloa oryzicola Vasing., B: Scirpus juncoides, C: Monochoria vaginalis, D: Leptochloa chinensis, E: Cyperus difformis, F: Digitaria ciliaris, G: Setaria viridis, H: Echinochloa crus-galli var. crus-galli, I: Avena fatua, J: Alopecurus myosuroides, K: Lolium multiflorum Lam., L: Apera spica-venti., M: Abutilon theophrasti, N: Amaranthus retroflexus, O: Chenopodium album, P: Stellaria media, Q: Galium spurium, R: Veronica persica, a: transplanted Oryza sativa, b: directly sowed Oryza sativa, c: Zea mays, d: Glycine max, e: Triticum aestivum, f: Beta vulgaris ssp. vulgaris, and g: Brassica campestris L. The application herbicide amount (g/ha) means an amount that a concentration is adjusted so that, when an application amount is converted into per hectare (1 ha), the herbicide is applied by the number of grams (g) of the described value.

Scirpus juncoides = assay: as above; settings: Seventeenth Table
Description: as §1

[2] = system: transplanted Oryza sativa; assay: Test Example 1: effect on crop, application before weed generation in submerged conditions; settings: Seventeenth Table
Description: as §1

[3] = system: Beta vulgaris ssp. vulgaris; assay: Test Example 4: effect on crop by application to foliage (diluvial soil, plastic box)
Outline: (§2)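 Greenhouse plants (25° C. to 30° C., 14 d, diluvial soil) receive a foliar spray of water-diluted emulsifiable formulation at defined g/ha. Grading after 3 weeks uses a six-step herbicidal-ratio scale, with 4 covering 70% to <90% and 1 covering 5% to <20%.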

Brassica campestris L. = assay: as above
Outline: as §2

Glycine max = assay: as above
Outline: as §2

Triticum aestivum = assay: as above
Outline: as §2

Zea mays = assay: as above
Outline: as §2

[4] = system: directly sowed Oryza sativa; assay: as above
Outline: as §2

Monochoria vaginalis = assay: Test Example 1: herbicidal activity, application before weed generation in submerged conditions; settings: Seventeenth Table
Description: as §1

[5] = Application herbicide amount 320 g/ha
[6] = application to foliage, application herbicide amount 320 g/ha
[7] = Application herbicide amount 320 g/ha, effect on crop
[8] = Application herbicide amount 288 g/ha
[9] = Application herbicide amount 288 g/ha, foliage application
[10] = Application herbicide amount 141 g/ha
[11] = application to foliage, 141 g/ha

Cc1nnc(NC(=O)c2ccc(C(F)(F)F)n3c(C4CC4)nnc23)o1 [1-010]
A: Echinochloa oryzicola Vasing. (herbicidal effect grade) [1, 5]: 5 (Herbicidal ratio of 90% or more (almost completely withered)) | B: Scirpus juncoides (herbicidal effect grade) (Scirpus juncoides; [5]): 3 (Herbicidal ratio of 40% or more and less than 70%) | a: transplanted Oryza sativa (effect on crop grade) [2, 5]: 0 (Herbicidal ratio of 5% or less (almost no effect)) | f (Beta vulgaris ssp. vulgaris) effect on crop [3, 6]: 5 (Herbicidal ratio of 90% or more (almost completely withered)) | g (Brassica campestris L.) effect on crop (Brassica campestris L.; [6]): 3 (Herbicidal ratio of 40% or more and less than 70%) | c (Glycine max) effect on crop (Glycine max; [6]): 1 (Herbicidal ratio of 5% or more and less than 20%) | e (Triticum aestivum) effect on crop (Triticum aestivum; [6]): 1 (Herbicidal ratio of 5% or more and less than 20%) | b (Zea mays) effect on crop (Zea mays; [6]): 0 (Herbicidal ratio of 5% or less (almost no effect)) | d (directly sowed Oryza sativa) effect on crop [4, 6]: 4 (Herbicidal ratio of 70% or more and less than 90%)

CCCSc1nnc2c(C(=O)Nc3nnc(C)o3)ccc(C(F)(F)F)n12 [1-087]
A: Echinochloa oryzicola Vasing. (herbicidal effect grade) [1, 5]: 5 (Herbicidal ratio of 90% or more (almost completely withered)) | C: Monochoria vaginalis (herbicidal effect grade) (Monochoria vaginalis; [5]): 3 (Herbicidal ratio of 40% or more and less than 70%) | a: transplanted Oryza sativa (effect on crop grade) [2, 5]: 0 (Herbicidal ratio of 5% or less (almost no effect)) | f [3, 7]: 5 (Herbicidal ratio of 90% or more (almost completely withered)) | g (Brassica campestris L.; [7]): 4 (Herbicidal ratio of 70% or more and less than 90%) | c (Glycine max; [7]): 4 (Herbicidal ratio of 70% or more and less than 90%) | e (Triticum aestivum; [7]): 2 (Herbicidal ratio of 20% or more and less than 40%) | b (Zea mays; [7]): 0 (Herbicidal ratio of 5% or less (almost no effect)) | d [4, 7]: 4 (Herbicidal ratio of 70% or more and less than 90%)

C=CCSc1nnc2c(C(=O)Nc3nnco3)ccc(C(F)(F)F)n12 [1-128]
A: Echinochloa oryzicola Vasing. (herbicidal effect grade) [1, 8]: 5 (Herbicidal ratio of 90% or more (almost completely withered)) | C: Monochoria vaginalis (herbicidal effect grade) (Monochoria vaginalis; [8]): 2 (Herbicidal ratio of 20% or more and less than 40%) | B: Scirpus juncoides (herbicidal effect grade) (Scirpus juncoides; [8]): 4 (Herbicidal ratio of 70% or more and less than 90%) | a: transplanted Oryza sativa (effect on crop grade) [2, 8]: 0 (Herbicidal ratio of 5% or less (almost no effect)) | f (Beta vulgaris ssp. vulgaris) effect on crop grade [3, 9]: 5 (Herbicidal ratio of 90% or more (almost completely withered)) | g (Brassica campestris L.) effect on crop grade (Brassica campestris L.; [9]): 3 (Herbicidal ratio of 40% or more and less than 70%) | d (Glycine max) effect on crop grade (Glycine max; [9]): 3 (Herbicidal ratio of 40% or more and less than 70%) | e (Triticum aestivum) effect on crop grade (Triticum aestivum; [9]): 1 (Herbicidal ratio of 5% or more and less than 20%) | c (Zea mays) effect on crop grade (Zea mays; [9]): 0 (Herbicidal ratio of 5% or less (almost no effect))

CCN(C)c1nnc2c(C(=O)Nc3nnnn3C)ccc(C(F)(F)F)n12 [2-088]
A: Echinochloa oryzicola Vasing. (herbicidal effect grade) [1, 10]: 5 (Herbicidal ratio of 90% or more (almost completely withered)) | C: Monochoria vaginalis (herbicidal effect grade) (Monochoria vaginalis; [10]): 5 (Herbicidal ratio of 90% or more (almost completely withered)) | B: Scirpus juncoides (herbicidal effect grade) (Scirpus juncoides; [10]): 5 (Herbicidal ratio of 90% or more (almost completely withered)) | a: transplanted Oryza sativa (effect on crop grade) [2, 10]: 3 (Herbicidal ratio of 40% or more and less than 70%) | effect on crop, f (Beta vulgaris ssp. vulgaris) [3, 11]: 5 (Herbicidal ratio of 90% or more (almost completely withered)) | effect on crop, g (Brassica campestris L.) (Brassica campestris L.; [11]): 5 (Herbicidal ratio of 90% or more (almost completely withered)) | effect on crop, c (Glycine max) (Glycine max; [11]): 0 (Herbicidal ratio of 5% or less (almost no effect)) | effect on crop, e (Triticum aestivum) (Triticum aestivum; [11]): 0 (Herbicidal ratio of 5% or less (almost no effect)) | effect on crop, d (directly sowed Oryza sativa) [4, 11]: 4 (Herbicidal ratio of 70% or more and less than 90%)
